# Marks after values point to notes of the source that are not given here.
# Test system: chicken embryos
# Experiment: Metabolic profiling of blood plasma (GC-MS, LC-MS, OPLS-DA)
# Assay type: in vivo, Gallus gallus domesticus
# Settings: LC
# Protocol: Controls were injected with 20 μL vehicle only (DMSO).
# Plasma was collected and stored at -70°C.
# Metabolites in allantoic fluid and blood plasma were analyzed using gas chromatography-mass spectrometry (GC-MS) and liquid chromatography-mass spectrometry (LC-MS) as described in S1 Methods. Prior to GC-MS and LC-MS analysis, allantoic fluid (100 μL) and blood plasma (50 μL) were extracted. To each sample, 900 μL (allantoic fluid) or 450 μL (blood plasma) of extraction buffer (90/10 v/v methanol:water) including all internal standards were added. Standards for GC-MS were proline, succinic acid, glutamic acid, salicylic acid, alpha-ketoglutarate, putrescine, myristic acid, hexadecanoic acid, cholesterol, and sucrose. Standards for LC-MS were Val-Tyr-Val, Leu-enkephalin, sulfadimethoxine and reserpine. Samples were homogenized by shaking in a bead mill at a frequency of 30 Hz for 3 minutes and proteins were precipitated at +4°C on ice. The samples were centrifuged at +4°C, 14000 rpm, for 10 min. Then, 200 μL supernatant was transferred to a GC microvial and 200 μL was transferred to an LC microvial, and solvents were evaporated. Samples from the four replicate experiments were analyzed using in chronological order and within each replicate experiment the run order of the individual samples was randomized.
# Multivariate statistical analyses of metabolite profiles were performed using the software package SIMCA-P version 13.0 (Umetrics, Umeå, Sweden). Data was centered and scaled to variance 1 (UV scaling) prior to modelling. To reduce unintended systematic variation caused by sample processing and instrument drift, GC-MS and LC-MS metabolite amounts (expressed as the area under the chromatographic peak) were normalized by Orthogonal Partial Least Squares analysis (O2PLS) prior to multivariate data analysis. O2PLS finds common (predictive) and unique (orthogonal) variation in two data matrices. If applied to find the common variation between the data matrix containing the measured metabolite concentrations and a matrix containing only the internal standards, the only common (predictive) variation expected is due to the unintended systematic variation. By deleting the contribution of the predictive latent variables, that variation can be removed from the data. Models obtained after this normalization contain in general less latent variables, and this simplification helps when deciding on the number of latent variables to be used. Following normalization, GC-MS and LC-MS data were analyzed together. Initially, a global Principal Component Analysis (PCA) was performed to get an overview of groups and trends and to identify outliers. Projections to latent structures by means of Orthogonal Partial Least Squares Discriminant Analysis (OPLS-DA) was used to model the relationship between the X-matrix (metabolite concentrations) and the Y matrix (class, i.e. exposure group or sex), and to find x-variables that were related to class belonging. OPLS-DA is a supervised prediction and regression method that rotates the projection plane to find the maximum covariance between the data and the class assignment. All groups were first analyzed together in a 5-class OPLS-DA and then each exposure group was analyzed against the control group in a 2-class OPLS-DA. Sex differences were analyzed both using the whole data set and in each group separately using 2-class OPLS-DA, with females and males as the two classes. Only variables with 80% or more nonzero values were included in the statistical models. […] The validity of each model was also checked using CV-ANOVA (ANOVA of the cross-validated residuals). A significance level of p < 0.05 was used. For each model, R ^2 X, R ^2 Y and Q ^2 values were calculated, where R ^2 X is a measure of the fraction of x variation modeled in the extracted latent variables, R ^2 Y is a measure of the fraction of y variation modeled and Q ^2 is an estimate of the predictive ability of the model and is calculated by cross-validation. […]
smiles,measurement,setting,value
"O=C(O)C(F)(F)C(F)(F)C(F)(F)C(F)(F)C(F)(F)C(F)(F)C(F)(F)F [PFOA, perfluorooctanoic acid]","Mean concentration relative to control, feature 659.5483@11.4915495",PFOA 50,1.0
same,"Mean concentration relative to control, feature 698.2598@1.3599721",PFOA 50,1.1
same,"Mean concentration relative to control, feature 700.5514@10.765638",PFOA 50,1.1
same,"Mean concentration relative to control, feature 755.5465@10.73882",PFOA 50,1
same,"Mean concentration relative to control, feature 827.5078@8.831237",PFOA 50,1.2
same,"Mean concentration relative to control, feature 875.4661@10.5661745",PFOA 50,1.0
same,"Mean concentration relative to control, feature 1262.4865@1.947075",PFOA 50,1
same,"Mean concentration relative to control, feature 1316.4163@1.9465046",PFOA 50,1.1*
same,"Mean concentration relative to control, feature 1591.051@5.0189176",PFOA 50,1
same,"Mean concentration relative to control, feature 1591.388@5.0202384",PFOA 50,1
same,"Mean concentration relative to control, feature 1591.7203@5.018071",PFOA 50,1
same,"Mean concentration relative to control, feature 118.0284@2.480333 (C4H6O4)",PFOA 250,1
same,"Mean concentration relative to control, feature 122.0486@0.675613",PFOA 250,1
same,"Mean concentration relative to control, feature 126.0428@1.2278157 (Thymine)",PFOA 250,1.1*
same,"Mean concentration relative to control, feature 146.0362@0.7772238",PFOA 250,1
same,"Mean concentration relative to control, feature 159.0686@1.1608156",PFOA 250,1.4
same,"Mean concentration relative to control, feature 164.0449@0.7694838",PFOA 250,1
same,"Mean concentration relative to control, feature 202.1024@5.0303197 (C8H14N2O4)",PFOA 250,1.1
same,"Mean concentration relative to control, feature 203.1162@0.5130696",PFOA 250,0.9
same,"Mean concentration relative to control, feature 213.2458@7.4887733",PFOA 250,1.2**
same,"Mean concentration relative to control, feature 215.047@1.6260729 (C5H14NO6P)",PFOA 250,1.0
same,"Mean concentration relative to control, feature 226.0721@1.9460537",PFOA 250,1
same,"Mean concentration relative to control, feature 231.0174@1.6241412",PFOA 250,0.9
same,"Mean concentration relative to control, feature 233.1265@2.535991",PFOA 250,1.1
same,"Mean concentration relative to control, feature 250.1317@2.1334834",PFOA 250,0.9
same,"Mean concentration relative to control, feature 260.0508@0.69984084",PFOA 250,0.7*
same,"Mean concentration relative to control, feature 276.0173@1.6283482",PFOA 250,0.9
same,"Mean concentration relative to control, feature 278.0939@1.3354088",PFOA 250,1
same,"Mean concentration relative to control, feature 293.0903@1.5739433",PFOA 250,1
same,"Mean concentration relative to control, feature 307.2147@7.5065937 (C18H29NO3)",PFOA 250,2.0***
same,"Mean concentration relative to control, feature 310.178@7.5343466",PFOA 250,1.2**
same,"Mean concentration relative to control, feature 339.3861@9.528681",PFOA 250,1.4*
same,"Mean concentration relative to control, feature 342.2883@7.526812",PFOA 250,0.7***
same,"Mean concentration relative to control, feature 348.0675@1.5761927",PFOA 250,1
same,"Mean concentration relative to control, feature 355.9454@0.68034226",PFOA 250,1
same,"Mean concentration relative to control, feature 362.1467@0.8461036",PFOA 250,1.0
same,"Mean concentration relative to control, feature 366.1431@1.4228548",PFOA 250,1
same,"Mean concentration relative to control, feature 373.296@9.044806",PFOA 250,1.1
same,"Mean concentration relative to control, feature 375.3108@8.995564",PFOA 250,1
same,"Mean concentration relative to control, feature 389.2686@9.046645",PFOA 250,1
same,"Mean concentration relative to control, feature 407.0999@1.585909",PFOA 250,1
same,"Mean concentration relative to control, feature 412.135@2.4779084 (C17H24N4O6S)",PFOA 250,1
same,"Mean concentration relative to control, feature 444.3607@10.33052",PFOA 250,0.7*
same,"Mean concentration relative to control, feature 471.9819@0.685074",PFOA 250,1.1
same,"Mean concentration relative to control, feature 489.1508@8.562614",PFOA 250,0.8
same,"Mean concentration relative to control, feature 509.1184@2.4798179",PFOA 250,1
same,"Mean concentration relative to control, feature 525.2855@8.361063",PFOA 250,1
same,"Mean concentration relative to control, feature 545.2492@8.463657",PFOA 250,1.1
same,"Mean concentration relative to control, feature 558.4095@9.459733",PFOA 250,1
same,"Mean concentration relative to control, feature 565.1902@0.7699907",PFOA 250,1.0
same,"Mean concentration relative to control, feature 577.2747@9.25652",PFOA 250,1.1
same,"Mean concentration relative to control, feature 581.1643@0.77029324",PFOA 250,1.1
same,"Mean concentration relative to control, feature 634.2403@1.9467853",PFOA 250,1
same,"Mean concentration relative to control, feature 644.1614@0.7647065",PFOA 250,1.1*
same,"Mean concentration relative to control, feature 659.5483@11.4915495",PFOA 250,0.9
same,"Mean concentration relative to control, feature 698.2598@1.3599721",PFOA 250,1.1
same,"Mean concentration relative to control, feature 700.5514@10.765638",PFOA 250,1.1
same,"Mean concentration relative to control, feature 755.5465@10.73882",PFOA 250,1.2
same,"Mean concentration relative to control, feature 827.5078@8.831237",PFOA 250,1.2
same,"Mean concentration relative to control, feature 875.4661@10.5661745",PFOA 250,1.0
same,"Mean concentration relative to control, feature 1262.4865@1.947075",PFOA 250,1
same,"Mean concentration relative to control, feature 1316.4163@1.9465046",PFOA 250,1.0
same,"Mean concentration relative to control, feature 1591.051@5.0189176",PFOA 250,1
same,"Mean concentration relative to control, feature 1591.388@5.0202384",PFOA 250,0.9
same,"Mean concentration relative to control, feature 1591.7203@5.018071",PFOA 250,0.9

# Reference: article PMC4666608, “Metabolic Profiling of Chicken Embryos Exposed to Perfluorooctanoic Acid (PFOA) and Agonists to Peroxisome Proliferator-Activated Receptors” (PLoS ONE, 2015)
